Where a name gives a salt, the structure may show the parent alone. Read-outs that look alike come from different tables or passages of the source.
Assays:
Varroa destructor = test system: Varroa destructor
Experimental: About 300 bees (Apis mellifera) infected with Varroa destructor were taken from a hive superinfected with Varroa destructor. The bees were then placed in a device allowing to detach Varroa mites attached to the bees (device described in Community model n° 003419415-0001) filled with icing sugar. The device was stirred for 2 minutes to sample the Varroa mites attached to the bees. The icing sugar allows to interfere between the bee and the Varroa mite that was attached thereto. Varroa mites were harvested with icing sugar because they pass through the holes in the device, unlike bees. The Varroa mites were then separated from the icing sugar.
The Varroa mites thus recovered were dispatched in boxes (10 Varroa mites per box).
(§1) The bees were then dispatched in the boxes (10 per box).
(§2) The bees were then put to sleep for a few minutes using CO2 (flow of 3 liters for 20 seconds) in order to deposit 1 μL of compound to be tested on their thorax using a pipette. It should be noted that the bees which received romifidine hydrochloride at a concentration of 10 μg/μL received 2 μL of product. The bees were unconscious for the time the compound to be tested was deposited, that is to say around three minutes, then they woke up.
(§3) After thoracic deposition of the compound to be tested, the 10 bees from the same box were transferred to a box containing the 10 Varroa mites (cf. “Preparation of Varroa mites” above). Liquid sugar was left in each of the boxes to feed the bees during the observations. The series of boxes was then placed in an oven at […] with a humidity of 50% in order to approximate hive conditions as closely as possible.
(§4) The mortality of Varroa mites and bees was then monitored 5 minutes, 2 hours, 4 hours and 24 hours after application of the compound to be tested to the bees. Dead Varroa mites correspond to Varroa mites detached from the bees. Dead bees correspond to bees which no longer move and which are often placed on their thorax.
(§5) The following compositions were applied to the thorax of the bees: • Solvent, • Amitraz at 1 μg/μL in acetone, • Clonidine hydrochloride at 100 μg/μL, 10 μg/μL, 1 μg/μL and 0.1 μg/μL in methanol, • Detomidine hydrochloride monohydrate at 1 μg/μL in methanol, • Dexmedetomidine hydrochloride at 100 μg/μL, 10 μg/μL, 1 μg/μL and 0.1 μg/μL in methanol, • Romifidine hydrochloride at 10 μg/μL and at 5 μg/μL in methanol, • Tizanidine hydrochloride at 1 μg/μL in methanol, • Medetomidine hydrochloride at 0.1 μg/μL in ethanol, • Levomedetomidine hydrochloride at 100 μg/μL, 10 μg/μL, 1 μg/μL and 0.1 μg/μL in methanol, • Octopamine at 1 μg/μL in ethanol. Results

bees (Apis mellifera) = conditions: for bees killed / bee mortality / bees killed: 1 μL on bee thorax; for bees killed / bee mortality: time not stated (monitored up to 24 hours); for mortality / toxicity for the bees: after 24 hours
Experimental: as §1, §2, §3, §4, §5

## NCC(O)c1ccc(O)cc1 (stereo not drawn) [Octopamine]
Varroa destructor; 1 μg/μL in ethanol
  Varroacid effect (in words): No Varroacid effect
Bees (Apis mellifera); 1 μg/μL
  bees killed / bee mortality: zero

## Fc1cccc(Br)c1NC1=NCCN1 [Romifidine hydrochloride, N-(2-bromo-6-fluorophenyl)-4,5-dihydro-1H-imidazol-2-amine]
Varroa destructor; 5 μg/μL, 24 hours, compared with 10 μg/μL at 4 hours
  mortality of Varroa mites: same level of mortality
Varroa destructor; 2 μl of product at 10 μg/μL, after 2 hours
  mortality of Varroa mites: 75%
Varroa destructor; 2 μl of product at 10 μg/μL, after 4 hours
  mortality of Varroa mites: 95%
Bees (Apis mellifera); all doses (10 and 5 μg/μL), even after 24 hours
  Bee mortality: zero

## Cc1cccc(Cc2cnc[nH]2)c1C [Detomidine hydrochloride monohydrate, 4-[(2,3-dimethylphenyl)-methyl]-3H-imidazole]
Varroa destructor; 1 μg/μL, after 2 hours
  Varroa mites killed: 40%
Varroa destructor; 1 μg/μL, after 24 hours
  Varroa mites killed / Varroa mite mortality: 100%
Bees (Apis mellifera); 1 μg/μL, after 2 hours
  mortality for the bees: without mortality
Bees (Apis mellifera); 1 μg/μL
  mortality / toxicity for the bees: without mortality

## Clc1cccc(Cl)c1NC1=NCCN1 [Clonidine hydrochloride, N-(2,6-dichlorophenyl)-4,5-dihydro-1H-imidazol-2-amine]
Varroa destructor; full efficiency after 24 hours
  kinetics of the Varroacid effect (in words): rather slow compared to the positive control
Bees (Apis mellifera); 1 μg/μL
  bees killed / bee mortality: zero mortality
Bees (Apis mellifera); 10 μg/μL
  bees killed: 10%
Bees (Apis mellifera); 100 μg/μL
  bees killed: 10%

## Clc1ccc2nsnc2c1NC1=NCCN1 [Tizanidine hydrochloride, 4-Chloro-N-(4,5-dihydro-1H-imidazol-2-yl)-8-thia-7,9-diazabicyclo, nona-2,4,6,9-tetraen-5-amine]
Bees (Apis mellifera); 1 μg/μL
  mortality / toxicity for the bees: without toxicity

— patent US12501899B2, “Mite infestation treatment” (priority 2019, dated 2025)
